Source: the NIST ThermoML archive (doi:10.1016/j.jct.2018.08.035)

Test: xn = mol fraction of the nth substance listed
Settings: 100 kPa, Liquid, Vibrating tube method

CCC(O)CC [3-pentanol] + C[N+](=O)[O-]
Settings | mass density [kg/m3]
289.95 K, x1 = 0.3 | 1001.59
289.95 K, x1 = 0.325 | 997.479
289.95 K, x1 = 0.382 | 989.628
289.95 K, x1 = 0.414 | 986.685
289.95 K, x1 = 0.486 | 972.227
289.95 K, x1 = 0.488 | 969.425
289.95 K, x1 = 0.546 | 945.729
289.95 K, x1 = 0.573 | 926.782
289.95 K, x1 = 0.587 | 917.014
289.95 K, x1 = 0.615 | 902.235
289.96 K, x1 = 0.246 | 1008.64
289.96 K, x1 = 0.338 | 995.659
289.96 K, x1 = 0.363 | 992.594
289.96 K, x1 = 0.407 | 986.452
290.05 K, x1 = 0.266 | 1004.43
290.05 K, x1 = 0.325 | 996.695
290.05 K, x1 = 0.573 | 925.737
290.05 K, x1 = 0.587 | 916.65
290.06 K, x1 = 0.246 | 1008.03
290.06 K, x1 = 0.275 | 1005.08
290.06 K, x1 = 0.3 | 1000.6
290.06 K, x1 = 0.338 | 994.875
290.06 K, x1 = 0.363 | 991.838
290.06 K, x1 = 0.382 | 988.825
290.06 K, x1 = 0.407 | 985.25
290.06 K, x1 = 0.414 | 985.261
290.06 K, x1 = 0.486 | 971.285
290.06 K, x1 = 0.488 | 967.998
290.06 K, x1 = 0.546 | 944.207
290.06 K, x1 = 0.615 | 897.967
290.15 K, x1 = 0.246 | 1007.82
290.15 K, x1 = 0.266 | 1003.31
290.15 K, x1 = 0.275 | 1003.66
290.15 K, x1 = 0.3 | 999.813
290.15 K, x1 = 0.325 | 995.904
290.15 K, x1 = 0.363 | 990.879
290.15 K, x1 = 0.382 | 987.982
290.15 K, x1 = 0.407 | 984.083
290.15 K, x1 = 0.414 | 984.081
290.15 K, x1 = 0.486 | 970.021
290.15 K, x1 = 0.488 | 967.145
290.15 K, x1 = 0.546 | 942.592
290.15 K, x1 = 0.573 | 923.887
290.15 K, x1 = 0.587 | 916.211
290.15 K, x1 = 0.615 | 897.189
290.15 K, x1 = 0.629 | 888.276
290.16 K, x1 = 0.338 | 994.25
290.25 K, x1 = 0.246 | 1007.68
290.25 K, x1 = 0.266 | 1002.5
290.25 K, x1 = 0.275 | 1002.12
290.25 K, x1 = 0.3 | 999.25
290.25 K, x1 = 0.325 | 995.232
290.25 K, x1 = 0.363 | 990.096
290.25 K, x1 = 0.382 | 987.239
290.25 K, x1 = 0.407 | 983.056
290.25 K, x1 = 0.414 | 982.887
290.25 K, x1 = 0.486 | 968.242
290.25 K, x1 = 0.488 | 965.719
290.25 K, x1 = 0.546 | 941.205
290.25 K, x1 = 0.573 | 924.811
290.25 K, x1 = 0.587 | 914.293
290.25 K, x1 = 0.615 | 896.918
290.26 K, x1 = 0.338 | 993.457
290.35 K, x1 = 0.246 | 1007.56
290.35 K, x1 = 0.3 | 998.453
290.35 K, x1 = 0.338 | 992.611
290.35 K, x1 = 0.363 | 989.111
290.35 K, x1 = 0.382 | 986.379
290.35 K, x1 = 0.407 | 982.318
290.35 K, x1 = 0.414 | 981.695
290.35 K, x1 = 0.486 | 966.969
290.35 K, x1 = 0.546 | 939.634
290.35 K, x1 = 0.573 | 919.469
290.35 K, x1 = 0.587 | 912.051
290.35 K, x1 = 0.615 | 896.796
290.36 K, x1 = 0.266 | 1001.61
290.36 K, x1 = 0.275 | 1000.44
290.36 K, x1 = 0.325 | 994.188
290.36 K, x1 = 0.488 | 964.297
290.45 K, x1 = 0.246 | 1007.43
290.45 K, x1 = 0.275 | 998.669
290.45 K, x1 = 0.363 | 988.212
290.45 K, x1 = 0.382 | 985.548
290.45 K, x1 = 0.407 | 981.549
290.45 K, x1 = 0.414 | 980.935
290.45 K, x1 = 0.486 | 965.653
290.45 K, x1 = 0.488 | 962.338
290.45 K, x1 = 0.546 | 938.388
290.45 K, x1 = 0.573 | 918.938
290.45 K, x1 = 0.587 | 911.848
290.45 K, x1 = 0.615 | 891.445
290.46 K, x1 = 0.266 | 1000.04
290.46 K, x1 = 0.3 | 997.097
290.46 K, x1 = 0.325 | 993.308
290.46 K, x1 = 0.338 | 991.804
290.55 K, x1 = 0.246 | 1007.31
290.55 K, x1 = 0.363 | 987.195
290.55 K, x1 = 0.382 | 984.63
290.55 K, x1 = 0.407 | 980.769
290.55 K, x1 = 0.414 | 980.125
290.55 K, x1 = 0.486 | 963.548
290.55 K, x1 = 0.546 | 936.105
290.55 K, x1 = 0.573 | 918.841
290.55 K, x1 = 0.587 | 907.457
290.55 K, x1 = 0.615 | 891.334
290.56 K, x1 = 0.266 | 999.223
290.56 K, x1 = 0.275 | 997.256
290.56 K, x1 = 0.3 | 995.648
290.56 K, x1 = 0.325 | 992.372
290.56 K, x1 = 0.338 | 990.851
290.56 K, x1 = 0.488 | 960.605
290.65 K, x1 = 0.246 | 1007.18
290.65 K, x1 = 0.275 | 996.456
290.65 K, x1 = 0.363 | 986.092
290.65 K, x1 = 0.382 | 983.656
290.65 K, x1 = 0.407 | 979.953
290.65 K, x1 = 0.414 | 979.293
290.65 K, x1 = 0.486 | 962.186
290.65 K, x1 = 0.488 | 958.456
290.65 K, x1 = 0.546 | 933.71
290.65 K, x1 = 0.573 | 914.236
290.65 K, x1 = 0.587 | 907.308
290.65 K, x1 = 0.615 | 891.207
290.66 K, x1 = 0.266 | 998.714
290.66 K, x1 = 0.3 | 994.016
290.66 K, x1 = 0.325 | 991.399
290.66 K, x1 = 0.338 | 989.957
290.75 K, x1 = 0.246 | 1007.05
290.75 K, x1 = 0.266 | 998.54
290.75 K, x1 = 0.275 | 995.309
290.75 K, x1 = 0.338 | 988.906
290.75 K, x1 = 0.363 | 984.963
290.75 K, x1 = 0.382 | 982.614
290.75 K, x1 = 0.407 | 979.022
290.75 K, x1 = 0.414 | 978.364
290.75 K, x1 = 0.486 | 960.473
290.75 K, x1 = 0.488 | 956.964
290.75 K, x1 = 0.546 | 931.465
290.75 K, x1 = 0.573 | 914.122
290.75 K, x1 = 0.587 | 904.315
290.75 K, x1 = 0.615 | 891.079
290.76 K, x1 = 0.3 | 992.118
290.76 K, x1 = 0.325 | 990.346
290.85 K, x1 = 0.246 | 1006.93
290.85 K, x1 = 0.275 | 994.946
290.85 K, x1 = 0.363 | 983.532
290.85 K, x1 = 0.382 | 981.337
290.85 K, x1 = 0.407 | 977.974
290.85 K, x1 = 0.486 | 958.566
290.85 K, x1 = 0.488 | 954.397
290.85 K, x1 = 0.546 | 930.124
290.85 K, x1 = 0.573 | 911.261
290.85 K, x1 = 0.587 | 900.983
290.86 K, x1 = 0.266 | 998.415
290.86 K, x1 = 0.3 | 990.332
290.86 K, x1 = 0.325 | 989.272
290.86 K, x1 = 0.338 | 987.682
